Laboratory results as given in patent US20170285010A1, “Analytical Methods and Arrays for Use in the Same” (SENZAGEN AB, priority 2014, published 2017).
Like-named read-outs stand apart in the source and are kept apart here.

Key:
[1] = test system: MUTZ-3; test: GARD Respiratory Prediction Signature (GRPS) SVM classification of the independent test dataset; conditions: for SVM decision value: MUTZ-3, 24 h stimulation at GARD input concentration, 389 GRPS transcripts
Experimental: (§1) The human acute myelomonocytic leukemia cell line MUTZ-3[68,69] was obtained from Leibniz-lnstitut DSMZ-Deutsche Sammlung von Mikroorganismen and Zellkulturen (DSMZ, Braunschweig, Germany). Maintenance of cells, chemical stimulation of MUTZ-3 and all subsequent isolation of mRNA and preparation of cDNA were performed as previously described. In short, a phenotypic control of MUTZ-3 was performed using flow cytometry prior to chemical stimulation to ensure cells were in an immature state. The following FITC-conjugated mouse monoclonal antibodies (mAbs) were used: CD1a (DakoCytomation, Glostrup, Denmark), CD34, CD86, HLA-DR, IgG1 (BD Biosciences, Franklin Lakes, N.J.). The following PE-conjugated mouse monoclonal antibodies were used: CD14 (DakoCytomation), CD54, CD80, IgG1 (BD Biosciences). Cell viability was determined using Propidium Iodide (BD Biosciences) staining. Samples were run on FACSCanto II instrument. Data was acquired using FACS Diva software (BD Biosciences) and analyzed using FCS Express V4 (De Novo Software, Los Angeles, Calif.). Gating was performed to exclude cell debris and non-viable cells based on forward- and side-scattering properties and quadrants established using isotype-controls. During chemical exposure, cells were seeded at 200.000 cells/ml in 24-well plates and exposed to chemical compound at the GARD input concentration. Stimulated cells were harvested after 24 h incubation at 37° C., 5% CO2 and RNA was isolated with TRIzol® reagent (Life Technologies, Carlsbad, Calif.) using standardized protocols provided by the manufacturer. In parallel, a control of the maturity state of the cells was performed by flow cytometric analysis of CD86. Preparation of cDNA and hybridization, washing and scanning of the Human Gene 1.0 ST Arrays (Affymetrix, Santa Clara, Calif., USA) was performed, according to standardized protocols provided by the manufacturer (Affymetrix).
Gene expression data obtained from the Human Gene 1.0 ST Arrays were normalized using the Single-Channel array normalization (SCAN) algorithm, and potential batch effects between different set of experiments were adjusted using the ComBat empirical bayes method. Normalizations and batch adjustments were performed in R statistical software using the open software Bioconductor v2.14 [73] with the additional software packages SCAN.UPC [70] and sva . Normalized data was imported into Qlucore Omics Explorer 3.0 (Qlucore AB, Lund, Sweden) and visualized using Principal Component Analysis (PCA). Predictors were selected from a one-way ANOVA p-value filtration, using false discovery rate (FDR) to adjust for multiple hypothesis testing, comparing respiratory sensitizers and non-respiratory sensitizers. […] The Backward Elimination algorithm was modified to minimize the Kullback-Leibler error [53] rather than maximizing the Area Under the Receiver Operating Characteristic (AUC ROC), in order to enable signature optimization in cases where the AUC ROC reaches 1.0. […] The script for Backwards Elimination was programmed in R, with the additional package e1071 [78]. The method by which the predictive genomic biomarker signature was established was validated using cross-validation based on Support Vector Machines (SVM), based on a linear kernel, as described previously. In short, the training dataset was randomly divided into a new cross-validation training dataset comprising 70% of the stimulations, and a cross-validation test dataset comprising 30% of the stimulations. In addition, care was taken to maintain the same proportion between respiratory sensitizers and non-respiratory sensitizers as in the complete training dataset. A new predictive genomic biomarker signature was identified from the cross-validation training dataset using one-way ANOVA p-value filtration as described above.

[2] = test system: MUTZ-3; test: Chemical cytotoxicity, Rv90 (90% relative viability), propidium iodide staining
Text: A panel of 32 reference chemicals comprising a selection of 10 well characterized respiratory sensitizers and 22 non-respiratory sensitizers, collectively termed the training dataset, were used for cell stimulations in order to establish the predictive genomic biomarker signature. […] Additionally, a panel of 25 chemicals, including 6 respiratory sensitizers and 19 non-respiratory sensitizers, collectively termed the independent test dataset, were used for cell stimulations in order to form an independent testset for validation of the identified predictive genomic biomarker signature. The independent training dataset comprised both control chemicals, included during the training of the model, as well as chemicals previously unseen during training of the model. […] All chemicals were purchased from Sigma-Aldrich (St. Louis, Mo., USA). Chemicals were dissolved and diluted into GARD input concentration in either water or DMSO prior to stimulation of cells. For chemicals dissolved in DMSO, the in-well concentration of DMSO was 0.1%. Monitoring of chemical cytotoxicity and establishment of GARD input concentration for each chemical compound was performed as previously described. […] Toxic compounds were used at a concentration yielding 90% relative viability (Rv90). The criterion that was first met determined the GARD input concentration for each compound.
as §1

[3] = test system: CD86; test: CD86 expression of MUTZ-3 cells following chemical stimulation (flow cytometry); type: cell-based, human; conditions: MUTZ-3, 24 h stimulation, compared with vehicle/unstimulated cells, student's t-test p<0.05
Experimental: CD86 expression of MUTZ-3 cells following chemical stimulations. […] Statistical significance was determined by student's t-test, comparing each stimulation with its corresponding vehicle, with p<0.05 indicated by *.
Maintenance of cells, chemical stimulation of MUTZ-3 and all subsequent isolation of mRNA and preparation of cDNA were performed as previously described [41,42]. In short, a phenotypic control of MUTZ-3 was performed using flow cytometry prior to chemical stimulation to ensure cells were in an immature state. The following FITC-conjugated mouse monoclonal antibodies (mAbs) were used: CD1a (DakoCytomation, Glostrup, Denmark), CD34, CD86, HLA-DR, IgG1 (BD Biosciences, Franklin Lakes, N.J.). The following PE-conjugated mouse monoclonal antibodies were used: CD14 (DakoCytomation), CD54, CD80, IgG1 (BD Biosciences). Cell viability was determined using Propidium Iodide (BD Biosciences) staining. Samples were run on FACSCanto II instrument. Data was acquired using FACS Diva software (BD Biosciences) and analyzed using FCS Express V4 (De Novo Software, Los Angeles, Calif.). Gating was performed to exclude cell debris and non-viable cells based on forward- and side-scattering properties and quadrants established using isotype-controls. During chemical exposure, cells were seeded at 200.000 cells/ml in 24-well plates and exposed to chemical compound at the GARD input concentration. Stimulated cells were harvested after 24 h incubation at 37° C., 5% CO2 and RNA was isolated with TRIzol® reagent (Life Technologies, Carlsbad, Calif.) using standardized protocols provided by the manufacturer. In parallel, a control of the maturity state of the cells was performed by flow cytometric analysis of CD86.
Prior to chemical challenge, cells were quality controlled by measuring the cellular expression of common myeloid and dendritic cell markers using flow cytometry. These markers included CD1a, CD14, CD34, CD54, CD80, CD86 and HLA-DR.

[4] = Max solubility of chemicals for establishing the GARD input concentration
[5] = occupational asthma and allergic contact dermatitis, ref. [64]; cited from earlier work
[6] = concentration yielding 90% relative viability, MUTZ-3, Table 2
[7] = respiratory sensitizer if any replicate stimulation has SVM decision value >0
[8] = concentration yielding 90% relative viability, MUTZ-3, Table 1
[9] = reference compounds used during assay development (Table 1)

Row | Structure (SMILES) | Classification Pos if 1 sample >0 [1] | SVM decision value ([1]; replicate 1) | SVM decision value ([1]; replicate 2) | SVM decision value ([1]; replicate 3) | other results
1 | CCCCO [1-Butanol] | Sensitizer (key: Sensitizer: classified as a respiratory sensitizer if any of replicate stimulations have a SVM decision value > 0) | −0.32 | 0.12 |  | 
2 | O=[N+]([O-])c1ccc(Cl)c([N+](=O)[O-])c1 [2,4-dinitrochlorobenzene] |  | −1.66 | −1.18 | −1.90 | Rv90 [2, 6]: 4 µM; Classification Pos if 1 sample >0 [1, 7]: Non-sensitizer
3 | Nc1ccccc1O [2-Aminophenol] |  |  |  |  | Rv90 [2, 8]: 100 µM; Chemically induced up-regulation of CD86 [3]: up-regulation of CD86 was also observed
4 | C=CC(=O)OCCO [2-Hydroxyethyl acrylate] |  |  |  |  | Rv90 [2, 8]: 100 µM
5 | Sc1nc2ccccc2s1 [2-mercaptobenzothiazole] |  | −0.44 | −0.43 | −0.57 | 
6 | [Cl][Pt-2]([Cl])([Cl])([Cl])([Cl])[Cl].[NH4+].[NH4+] [Ammonium hexachloroplatinate] |  |  |  |  | Chemically induced up-regulation of CD86 [3]: statistically significant; Max solubility [4, 9]: 35 µM
7 | O=Cc1ccccc1 [Benzaldehyde] |  | −0.79 | −0.87 | −0.70 | Classification Pos if 1 sample >0 [1, 7]: Non-sensitizer
8 | Cc1ccc(S(=O)(=O)[N-]Cl)cc1.[Na+] [Chloramine T] |  | 0.52 | 0.59 |  | Classification Pos if 1 sample >0 [1, 7]: Sensitizer (classified as a respiratory sensitizer if any of replicate stimulations have a SVM decision value > 0)
9 | Clc1ccccc1 [Chlorobenzene] |  | −1.03 | −0.76 | −1.15 | SVM decision value ([1]; replicate 4): 0.24; SVM decision value ([1]; replicate 5): 0.06; Classification Pos if 1 sample >0 [1, 7]: Sensitizer (classified as a respiratory sensitizer if any of replicate stimulations have a SVM decision value > 0)
10 | OCC=Cc1ccccc1 [Cinnamyl alcohol] | Non-sensitizer | −0.57 | −1.44 | −1.26 | 
11 | CCOC(=O)c1ccccc1C(=O)OCC [Diethyl phthalate] |  | −1.37 | −0.96 | −1.22 | Classification Pos if 1 sample >0 [1, 7]: Non-sensitizer
12 | C=CCc1ccc(O)c(OC)c1 [Eugenol] | Non-sensitizer | −1.67 | −1.53 | −1.51 | Rv90 ([2]; human): 300 µM
13 | C=O [Formaldehyde] |  |  |  |  | Rv90 ([2]; human): 80 µM
14 | O=CCCCC=O [Glutaraldehyde] |  |  |  |  | Rv90 ([2]; human): 10 µM; Chemically induced up-regulation of CD86 [3]: statistically significant
15 | OCC(O)CO [Glycerol] | Non-sensitizer | −1.05 | −1.11 | −0.77 | 
16 | O=CC=O [Glyoxal] |  | −1.02 | −0.69 | −0.56 | Rv90 [2, 6]: 300 µM; Classification Pos if 1 sample >0 [1, 7]: Non-sensitizer
17 | CC=Cc1ccc(O)c(OC)c1 [Isoeugenol] |  |  |  |  | Rv90 ([2]; human): 300 µM
18 | CC(O)C(=O)O (centres unmarked) [Lactic acid] |  | −1.20 | −0.81 | −0.89 | 
19 | O=C=Nc1ccc(Cc2ccc(N=C=O)cc2)cc1 [Methylene diphenol diisocyanate] |  |  |  |  | Max solubility [4, 9]: 50 µM
20 | CCCCCCCC(=O)O [Octanoic acid] | Non-sensitizer | −0.65 | −0.79 | −1.22 | 
21 | Oc1ccccc1 [Phenol] | Non-sensitizer |  |  |  | 
22 | O=C1OC(=O)c2ccccc21 [Phtalic Anhydride] |  | 0.20 | −0.12 |  | Classification Pos if 1 sample >0 [1, 7]: Sensitizer (classified as a respiratory sensitizer if any of replicate stimulations have a SVM decision value > 0); Max solubility ([4]; chemicals of the independent dataset (Table 2)): 200 µM; Max solubility [4, 9]: 200 µM
23 | C1CNCCN1 [Piperazine] | Non-sensitizer | −0.05 | −0.12 |  | 
24 | Oc1cccc(O)c1 [Resorcinol] | Non-sensitizer | −1.01 | −0.99 | −1.40 | 
25 | O=C(O)c1ccccc1O [Salicylic acid] | Non-sensitizer | −0.73 | −1.08 | −1.13 | 
26 | CCCCCCCCCCCCOS(=O)(=O)[O-].[Na+] [Sodium dodecyl sulphate] | Non-sensitizer | −1.49 | −0.80 | −1.30 | Rv90 [2, 6]: 200 µM
27 | O=C(O)c1ccc(O)cc1 [p-hydroxybenzoic acid] | Non-sensitizer | −0.81 | −0.56 | −1.09 | 
28 | Nc1ccc(N)cc1 [p-phenylenediamine] |  | −1.38 | −1.19 | −1.80 | Rv90 [2, 6]: 75 µM; Classification Pos if 1 sample >0 [1, 7]: Non-sensitizer
29 | O=c1n(CC2CO2)c(=O)n(CC2CO2)c(=O)n1CC1CO1 (centres unmarked) [triglycidylisocyanurate] |  |  |  |  | Sensitization in humans (OA, ACD) [5]: cause both OA and ACD
